{
  "source": "patent US11938122B2",
  "about": "“5-[[4-[2-[5-(1-hydroxyethyl)pyridin-2-yl]ethoxy]phenyl]methyl]-1,3- thiazolidine-2,4-dione for treating nonalcoholic fatty liver disease” (Minoryx Therapeutics S.L., priority 2016, dated 2024)",
  "key": {"[1]": {"system": "major drug metabolizing cytochrome P450 (CYP) enzymes", "assay": "Reversible and time-dependent inhibition (TDI) of major CYP enzymes, human liver microsomes", "type": "in vitro ADME", "details": "in vitro concentrations of 100 μM or lower", "description": "Inhibition was screened using a cocktail incubation with CYP specific substrates for eight major drug metabolizing CYP enzymes (CYPs 1A2, 2A6, 2B6, 2C8, 2C9, 2C19, 2D6 and 3A4) in incubations with a pool of human liver microsomes. In reversible inhibition, MIN-102 was incubated with buffer, microsomes, cofactor NADPH and CYP-specific substrate cocktail mix for 15 min. In TDI study, buffer and microsomes were preincubated with MIN-102 in the presence and absence of cofactor NADPH for 0 or 30 min to elucidate the possible time-dependency of inhibition. Secondary incubation was conducted with CYP-specific substrate cocktail mix for 30 min. MIN-102 was used at final concentrations of 0.01, 0.1, 1, 10, and 100 μM in both assays."}, "[2]": {"assay": "Stability in the hepatocyte incubation medium", "type": "in vitro ADME", "details": "50 μM, 24-hour incubation", "description": "The stability of MIN-102 in the incubation medium was assayed in parallel at the highest test concentration (50 μM) and quantified in incubation medium."}, "EAE mouse model": {"system": "EAE mouse model", "assay": "Experimental autoimmune encephalitis (EAE) mouse model", "type": "in vivo", "details": "EAE mice, highest dose (125 mg/Kg/day oral, bid)", "text": "The anti-inflammatory potential of MIN-102 was studied using an EAE mouse model, e.g., as described in Linker and Lee, Experimental & Translational Stroke Medicine 1:5 (2009). This model for neuroinflammation is a highly reproducible and long established model of multiple sclerosis. The model is based on the induction of an autoimmune reaction upon the exposure of the animals to myelin antigens. Several days after inoculation, e.g., 9-12 days, the mouse develops a relapsing-remitting or chronic disease course.\nIn the study, female C57Bl/6 mice were sensitized by a subcutaneous injection of myelin oligodendrocyte glycoprotein peptide fragment 35-55 (MOG35-55) in Freund's Complete Adjuvant (CFA) at the tail base. Starting at five days after disease induction, the animals were treated at three different oral doses of MIN-102, 17, 50, and 125 mg/Kg/day, using bid administration. From day five, the animals were weighed and scored for the appearance of disease symptoms. The levels of neutrophils were measured in mice from the naïve, vehicle, and the highest MIN-102 dose. Data were analyzed by one-way ANOVA followed by the Dunnett's post-hoc test versus the vehicle group (*, p <0.05). Results are presented as mean+standard error of the mean of n=10, except n=9 for the highest dose of MIN-102, and n=4 for the naïve group."}, "CYP1A2": {"system": "CYP1A2", "assay": "CYP induction in cryopreserved human hepatocytes", "type": "in vitro ADME", "details": "50 μM, hepatocytes from 3 human donors"}, "[3]": {"system": "MCD diet NASH mouse model", "assay": "Methionine Choline Deficient (MCD) diet NASH mouse model", "type": "in vivo", "details": "62.5 mg/kg BID oral, 7 weeks", "text": "According to one NASH model in mice (See Verdelho Machado et al., PlosOne May 27:10(5):e0127991 (2015)), male C57BL/6 inbred mice, aged 8 weeks, were obtained from Charles River, France. During the acclimation phase, standard (control chow) diet (RM1 (E) 801492, SDS) and tap water was provided ad libitum. Mice were then fed a Methionine Choline Deficient (MCD) diet (ref #A02082002B from Research Diets, USA) supplemented without or with the test item, provided ad libitum. All procedures were performed in accordance with the Guide for the Care and Use of Laboratory Animals (revised 1996 and 2011, 2010/63/EU) and French laws. 20 animals were housed in ventilated and enriched housing cages (310×125×127 mm^3) throughout the experimental phase. Animals' cages litters were changed at least once a week. They were housed in groups of 10 animals during the whole study, on a normal 12 hours light cycle (at 08:00 pm lights off), 22±2° C. and 50±10% relative humidity.\nAfter the acclimation period, mice (n=20) were weighed and randomized into 2 homogenous treatment groups based on body weight (n=10/group), put on a MCD diet, and treated BID orally with vehicle or MIN-102 for 7 weeks. Body weight was measured 3 times/week until the end of the experimental phase. At 7 weeks of diet/treatment, mice were weighed and treated at ˜08:00 am in the morning, then bled (maximal volume/EDTA) at ˜1:00 pm. Plasma was then immediately isolated and stored at […] prior to assay plasma ALT and AST. The plasma volume left over was stored at […] for eventual additional analysis.\nAfter blood collection, mice were sacrificed by cervical dislocation under isoflurane anesthesia and exsanguinated with sterile saline. Liver was collected and weighted. A ˜20 mg liver sample (weight recorded) was dissected for hepatic total cholesterol and triglycerides levels. A 0.5 cm^3 liver sample was frozen in isopentane for oil red O staining. […]\nA NAFLD scoring system (NAS) adapted from Kleiner et al. (Hepatology. 41(6):1313-1321 (2005)) was used. An individual mouse NAS total score was calculated for each animal by summing up the score for (1) hepatocellular steatosis, (2) liver inflammation, (3) lobular fibrosis, and (4) hepatocyte ballooning. […]\nData are expressed as mean±SEM. […]\nThe preventive effects of MIN-102 was evaluated in a 7-week Methionine Choline Deficient (MCD) diet NASH mouse model (Verdelho Machado et al.). […]\nAfter the acclimation period, C57BL6/J male mice (n=20) were weighed and randomized into 2 homogenous treatment groups based on body weight (n=10/group), put on a MCD diet, and treated BID orally with a vehicle or MIN-102 (125 mg/Kg/day) for 7 weeks. Body weight was measured 3 times/week until the end of the experimental phase. […]"}, "[4]": {"assay": "MIN-102 single oral dose (SAD) pharmacokinetics in healthy subjects", "details": "human, in vivo, some doses"}},
  "data": [
    {"smiles": "CC(O)c1ccc(CCOc2ccc(CC3SC(=O)NC3=O)cc2)nc1", "note": "(racemic) [MIN-102, 5-[[4-[2-[5-(1-hydroxyethyl)pyridin-2-yl]ethoxy]phenyl]methyl]-1,3-thiazolidine-2,4-dione]", "values": [
      {"measurement": "reversible or time-dependent inhibition towards major CYP enzymes", "setting": "[1]", "value": "did not cause remarkable reversible or time-dependent inhibition"},
      {"measurement": "stability in incubation medium", "setting": "[2]", "value": "remained stable"},
      {"measurement": "Lymphocyte number", "setting": "EAE mouse model", "value": "3.6 ± 2.3 ×10^3 cells/μl"},
      {"measurement": "N/L ratio", "setting": "EAE mouse model", "value": 0.52},
      {"measurement": "Neutrophil number", "setting": "EAE mouse model", "value": "1.9 ± 0.6 ×10^3 cells/μl"},
      {"measurement": "increase in activity of CYP1A2 probe reaction", "setting": "CYP1A2", "value": "less than 20 % of the respective positive control induction"},
      {"measurement": "Mean NAS group score", "setting": "[3]; mean±SEM", "value": "0.44±01"},
      {"measurement": "reduction in hepatic triglycerides levels", "setting": "[3]; vs vehicle", "value": 92, "unit": "%"},
      {"measurement": "reduction of plasma ALT level", "setting": "[3]; vs vehicle", "value": 78, "unit": "%"},
      {"measurement": "reduction of plasma AST level", "setting": "[3]; vs vehicle", "value": 55, "unit": "%"},
      {"measurement": "AUC(0-inf)", "setting": "[4]", "value": "20 to 400", "unit": "µg·h/mL"}
    ]}
  ]
}
